According to patent US20240226241A1, “FORMULATIONS FOR INTRAOCULAR DELIVERY OF PEPTIDES DERIVED FROM TYPE IV COLLAGEN” (AsclepiX Therapeutics, Inc., priority 2022, published 2024):
No end group written: not given here.

What was measured:
[1] = rabbit, in vivo
Description: (§1) This example evaluates the pharmacokinetics (PK)/tolerability of the AXT107 suspension (5% sucrose, 0.9% NaCl) at 4 different dose levels administered by suprachoroidal (Sch) injection in female Dutch Belted rabbits. In Phase 1 of these experiments, animals received a 100 μL SCh injection in both eyes on Day 0. In these experiments, Group 1 received 469 μg of AXT107 peptide, Group 2 received 246 μg of AXT107 peptide, and Group 3 received vehicle (i.e., 5% sucrose in saline).
(§2) Blood was collected from Group 3 pre-dose, and in terminal animals on Day 90, and was processed for plasma. All eyes in Groups 1 and 2 and two Group 3 eyes were collected and dissected. Blood and ocular tissues underwent PK analysis.
(§3) In the next studies, animals received a 100 μL SCh injection (of AXT107 suspension, 5% sucrose and 0.9% NaCl) in both eyes on Day 0. Group 1 animals received 340 μg of AXT107 peptide, Group 2 animals received 219 μg AXT107 peptide, Group 3 animals received 142 μg of AXT107 peptide, and Group 4 animals received 115 μg AXT107 peptide.
(§4) On Days 1, 15, 30, 60, and 90, n=2 animals/group were euthanized and plasma and ocular tissues were collected for PK.
(§5) Plasma and ocular tissues collected during the study were analyzed for AXT107 peptide PK parameters by non-GLP liquid chromatography with tandem-mass spectrometry (LC/MS/MS).

[2] = Pharmacokinetics after suprachoroidal injection, LC/MS/MS of plasma and ocular tissues; conditions: SCh injection
Description: as §1, §2, §3, §4, §5

[3] = Tolerability after suprachoroidal injection (ocular examination, tonometry, OCT, H&E histopathology); conditions: for tolerability: 100 μL SCh injection in both eyes on Day 0, to Day 90
Description: This example evaluates the pharmacokinetics (PK)/tolerability of the AXT107 suspension (5% sucrose, 0.9% NaCl) at 4 different dose levels administered by suprachoroidal (Sch) injection in female Dutch Belted rabbits. In Phase 1 of these experiments, animals received a 100 μL SCh injection in both eyes on Day 0.
Ocular examinations were performed at baseline, and on Days 1, 3, 7, 15, 30, 60, and 90. […] Tonometry was performed at baseline, and on Days 1, 3, 7, 15, 30, 60, and 90. […] Optical coherence tomography (OCT) was performed at baseline, post-dose to confirm SCh dosing, and on Day 15.
All eyes in Groups 1 and 2 and two Group 3 eyes were collected and dissected. […] From Group 3, two eyes were collected and processed for hematoxylin & eosin (H&E) histopathology.
In the next studies, animals received a 100 μL SCh injection (of AXT107 suspension, 5% sucrose and 0.9% NaCl) in both eyes on Day 0. […] Ocular examinations were performed at baseline and on Days 1, 9, 30, 60, and 90.
Tonometry was performed at baseline and on Days 1, 9, 30, 60, and 90.
OCT was performed at baseline, post-dose to confirm SCh dosing, and in terminal animals on Days 15 and 30.
On Day 90, an additional Group 1 animal was euthanized and OU were processed for H&E histopathology.

LRRFSTAPFAFIDINDVINF [AXT107 peptide]
drug levels in choroid/RPE [1]: present | drug levels in retina [2]: present | drug levels in aqueous humor ([2]; all timepoints): absent | drug levels in plasma ([2]; all timepoints): absent | H&E histopathology of eyes ([3]; Group 1 (340 μg), Day 90, both eyes, considered incidental (needle damage), unrelated to AXT107): mild mononuclear cell infiltrate in the limbal conjunctiva | tolerability ([3]; Phase 1: 469 μg and 246 μg): well tolerated | tolerability ([3]; all doses): well tolerated
